According to the supplement of paper PMC10627819:

Legend:
[1] = system: B. subtilis 168; test: fitness (endpoint OD595 vs no drug) (fraction); higher = more growth
Summary of the method: (§1)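 In 384-well plates at 37 °C, cultures began at OD595 0.01 in 30 µl, with 55 µl used for S. pneumoniae. OD595 readings every 30 min for 14 h were corrected by the first reading. Fitness divides the stationary-phase transition optical density by the robust mean of no-drug control wells. The result is capped at 1.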

[2] = system: S. pneumoniae D39V; test: as above
Summary of the method: as §1

[3] = system: S. aureus Newman; test: as above
Summary of the method: as §1

[4] = system: S. aureus DSM 20231; test: Bliss interaction score (quartile over a dose matrix) (fitness difference); higher = more antagonism (negative = synergy)
Summary of the method: (§2)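 Each OD595 reading at entry into stationary phase was scaled to the robust mean of the untreated wells on its plate, with a ceiling of 1. These ratios define fitness, and single-drug fitness was inferred from combinations. The Bliss score compares observed fitness with the product-based expectation and is reported as quartiles across all replicate types, technical, biological and donor/recipient.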

[5] = system: B. subtilis 168; test: as above
Summary of the method: as §2

[6] = system: S. pneumoniae D39V; test: as above
Summary of the method: as §2

[7] = system: S. aureus Newman; test: as above
Summary of the method: as §2
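For Bliss interaction score (quartile over a dose matrix) in this document: first quartile when negative (synergy) and third quartile when positive (antagonism).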
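For fitness (endpoint OD595 vs no drug) in this document: OD595 on entry to stationary phase over no-drug wells; at most 1.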

Cn1c2cccc(=O)c-2nc2ccccc21 [Pyocyanin] + CN(C)c1cc(NC(=O)CNC(C)(C)C)c(O)c2c1C[C@H]1C[C@H]3[C@H](N(C)C)C(O)=C(C(N)=O)C(=O)[C@@]3(O)C(O)=C1C2=O [Tigecycline]
fitness
Conditions | first compound 0.325 µg/mL | first compound 0.65 µg/mL | first compound 1.25 µg/mL | first compound 1.3 µg/mL | first compound 2.5 µg/mL | first compound 5 µg/mL
[1], partner 0.039 µg/mL | – | – | 0.956 | – | 0.903 | 0.786
[1], partner 0.078 µg/mL | – | – | 0.953 | – | 0.876 | 0.747
[1], partner 0.156 µg/mL | – | – | 0.935 | – | 0.863 | 0.762
[2], partner 0.65 µg/mL | 0.965 | 0.975 | – | 0.697 | – | –
[2], partner 1.3 µg/mL | ≥ 1 | 0.966 | – | 0.708 | – | –
[2], partner 2.6 µg/mL | 0.979 | 0.928 | – | 0.668 | – | –
[3], partner 0.039 µg/mL | – | – | 0.879 | – | 0.81 | 0.426
[3], partner 0.078 µg/mL | – | – | 0.854 | – | 0.808 | 0.412
[3], partner 0.156 µg/mL | – | – | 0.886 | – | 0.807 | 0.401

fitness, [1], one replicate
Conditions | first compound 1.25 µg/mL | first compound 2.5 µg/mL | first compound 5 µg/mL
partner 0.125 µg/mL | 0.964 | 0.97 | 0.955
partner 0.25 µg/mL | 0.865 | 0.847 | 0.882
partner 0.5 µg/mL | 0.91 | 0.867 | 0.801

Conditions | Bliss interaction score
[4] | -0.0925
[5] | -0.04
[6] | 0.0539
[7] | 0.0936

CC1=C(C(=O)O)N2C(=O)[C@@H](NC(=O)[C@H](N)c3ccccc3)[C@H]2SC1 [Cephalexin] + COc1c(N2C[C@@H]3CCCN[C@@H]3C2)c(F)cc2c(=O)c(C(=O)O)cn(C3CC3)c12 [Moxifloxacin]
Conditions | fitness
[1], first compound 0.125 µg/mL, partner 2 µg/mL | 0.0423
[1], first compound 0.125 µg/mL, partner 4 µg/mL | 0.0453
[1], first compound 0.125 µg/mL, partner 8 µg/mL | 0.0194
[1], first compound 0.25 µg/mL, partner 0.0312 µg/mL | 0.0487
[1], first compound 0.25 µg/mL, partner 0.0625 µg/mL | 0.0549
[1], first compound 0.25 µg/mL, partner 0.125 µg/mL | 0.0364
[1], first compound 0.25 µg/mL, partner 2 µg/mL | 0.0473
[1], first compound 0.25 µg/mL, partner 4 µg/mL | 0.0392
[1], first compound 0.25 µg/mL, partner 8 µg/mL | 0.027
[1], first compound 0.5 µg/mL, partner 0.0312 µg/mL | 0.0585
[1], first compound 0.5 µg/mL, partner 0.0625 µg/mL | 0.0464
[1], first compound 0.5 µg/mL, partner 0.125 µg/mL | 0.0607
[1], first compound 0.5 µg/mL, partner 2 µg/mL | 0.0441
[1], first compound 0.5 µg/mL, partner 4 µg/mL | 0.0483
[1], first compound 0.5 µg/mL, partner 8 µg/mL | 0.0385
[1], first compound 1 µg/mL, partner 0.0312 µg/mL | 0.0562
[1], first compound 1 µg/mL, partner 0.0625 µg/mL | 0.0588
[1], first compound 1 µg/mL, partner 0.125 µg/mL | 0.0618
[2], first compound 4 µg/mL, partner 0.005 µg/mL | 0.0502
[2], first compound 4 µg/mL, partner 0.01 µg/mL | 0.059
[2], first compound 4 µg/mL, partner 0.02 µg/mL | 0.0505
[3], first compound 0.25 µg/mL, partner 0.0075 µg/mL | 0.788
[3], first compound 0.5 µg/mL, partner 0.0075 µg/mL | 0.812
[3], first compound 0.5 µg/mL, partner 0.015 µg/mL | 0.691
[3], first compound 1 µg/mL, partner 0.0075 µg/mL | 0.807

fitness, [2], one replicate
Conditions | first compound 0.125 µg/mL | first compound 0.25 µg/mL | first compound 0.5 µg/mL
partner 0.0037 µg/mL | 0.856 | 0.855 | 0.836
partner 0.0075 µg/mL | 0.948 | 0.843 | 0.819
partner 0.015 µg/mL | 0.839 | 0.813 | 0.808

Conditions | Bliss interaction score
[4] | -0.0585
[5] | 0.0149
[6] | -0.0683
[7] | 0.07
